Target: T1, EphB2 (Homo sapiens, UniProt P29323)
T1 construct: purchased Reaction Biology Co. (Kinase HotSpot service)
T1 sequence (P29323 19-1055): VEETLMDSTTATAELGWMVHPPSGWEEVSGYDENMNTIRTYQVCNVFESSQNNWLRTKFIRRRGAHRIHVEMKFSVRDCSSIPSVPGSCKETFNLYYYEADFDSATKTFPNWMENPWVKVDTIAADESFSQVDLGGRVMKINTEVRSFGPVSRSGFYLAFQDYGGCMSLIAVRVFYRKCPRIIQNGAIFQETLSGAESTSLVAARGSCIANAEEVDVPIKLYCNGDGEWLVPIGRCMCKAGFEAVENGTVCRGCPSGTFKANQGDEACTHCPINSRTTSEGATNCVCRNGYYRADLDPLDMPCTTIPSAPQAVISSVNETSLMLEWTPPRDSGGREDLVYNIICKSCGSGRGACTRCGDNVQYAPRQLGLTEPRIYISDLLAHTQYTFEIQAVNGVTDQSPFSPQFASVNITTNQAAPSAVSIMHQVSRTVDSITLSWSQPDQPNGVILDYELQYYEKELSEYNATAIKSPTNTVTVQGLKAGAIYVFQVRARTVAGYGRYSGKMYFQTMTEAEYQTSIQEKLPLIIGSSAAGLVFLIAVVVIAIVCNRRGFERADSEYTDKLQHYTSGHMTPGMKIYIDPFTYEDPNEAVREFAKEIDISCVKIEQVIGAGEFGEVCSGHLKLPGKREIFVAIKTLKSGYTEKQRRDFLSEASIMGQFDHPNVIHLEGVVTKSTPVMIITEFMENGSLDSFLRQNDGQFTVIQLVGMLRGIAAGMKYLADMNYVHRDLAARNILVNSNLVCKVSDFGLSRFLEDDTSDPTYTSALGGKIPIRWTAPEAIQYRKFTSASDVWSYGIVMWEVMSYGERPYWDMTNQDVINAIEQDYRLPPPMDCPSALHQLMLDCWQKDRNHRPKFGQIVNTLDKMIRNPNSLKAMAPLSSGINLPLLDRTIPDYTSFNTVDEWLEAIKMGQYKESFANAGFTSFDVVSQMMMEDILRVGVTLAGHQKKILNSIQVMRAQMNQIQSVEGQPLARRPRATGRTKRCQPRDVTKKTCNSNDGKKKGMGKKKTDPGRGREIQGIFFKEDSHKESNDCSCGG
Assay: Kinase panel assay, EphB2
Assay type: biochemical
Procedure: […]. A further dose-dependent assay was conducted to validate the selectivity of compound 4c over the EphB isoforms. […]. Accordingly, it could be considered as a promising selective inhibitor for EphB3 isoform.
The screening of the tested compounds was performed using the Kinase HotSpot^SM service from Reaction Biology Co. (http://www.reactionbiology.com, accessed on 25 September 2021). The HotSpot assay platform contains specific kinase/substrate pairs along with required cofactors. Base reaction buffer: 20 mM Hepes (pH 7.5), 10 mM MgCl2, 1 mM EGTA, 0.02% Brij35, 0.02 mg/mL BSA, 0.1 mM Na3VO4, 2 mM DTT, 1% DMSO. The tested compounds were dissolved in 100% DMSO to specific concentration. The serial dilution was conducted by Integra Viaflo Assist in DMSO (Sigma-Aldrich, Burlington, MA, USA). The reaction mixture containing the examined compound and 33P-ATP was incubated at room temperature for 2 h, and radioactivity was detected by filter-binding method. Kinase activity data were expressed as the percent remaining kinase activity in test samples compared to vehicle (dimethyl sulfoxide) reactions. IC50 values and curve fits were obtained using Prism (GraphPad Software, San Diego, CA, USA).

- inhibition at 10 µM (EphB2, 10 µM, read-out: Average % Enzyme Inhibition (Relative to DMSO Controls) at 10 µM): 76.32 ± 0.61%
- IC50 (EphB2, dose-dependent assay): 3.95 µM
Compound: NS(=O)(=O)c1ccc(Nc2ncnc3ccc(-c4cccc(O)c4)cc23)cc1 [Compound 4c, 4-((6-(3-Hydroxyphenyl)quinazolin-4-yl)amino)benzenesulfonamide]
